Assay results taken from PMC12794186, “Covalent Alkynylpyridopyrimidinones Targeting Cysteine 775 of the Epidermal Growth Factor Receptor Overcome Resistance to Current Therapies” (Journal of Medicinal Chemistry, 2025).
Like-named read-outs stand apart in the source and are kept apart here.

Experiments:
[1] = tested on: BaF3 EGFR L858R/T790M cells; assay: Ba/F3 growth inhibition (CellTiter Glo); assay type: cell-based, Murine; settings: BaF3, absence of IL-3, 72 h, read-out: LT: L858R/T790M GI50
Description: (§1) Growth inhibition in Ba/F3 cell lines were assessed in a 384-well format by CellTiter Glo assay (Promega) using the manufacturer’s recommended protocol. Cells were seeded on the day of compound addition and assessed following 72 h incubation including a vehicle only control. Ba/F3 EGFR-WT cells required supplementation with EGF (100 ng/mL, ThermoFisher, Cat No. PHG0311).

BaF3 EGFR WT cells = assay: Ba/F3 growth inhibition (CellTiter Glo); assay type: cell-based, Murine; settings: Mus musculus, 72 h
Description: as §1

[2] = tested on: BaF3 EGFR del19/T790M cells; assay: Ba/F3 growth inhibition (CellTiter Glo); assay type: cell-based, Murine; settings: Mus musculus, BaF3, absence of IL-3, 72 h, read-out: dT: del19/T790M GI50
Description: as §1

[3] = tested on: BaF3 EGFR L858R/T790M/C775A cells; assay: Ba/F3 growth inhibition (CellTiter Glo); assay type: cell-based, Murine; settings: Mus musculus, BaF3, absence of IL-3, 72 h, read-out: LTC2: L858R/T790M/C775A GI50
Description: as §1

A431 (WT-EGFR) cells = assay: Adherent cell growth inhibition (CyQUANT); assay type: cell-based; settings: Homo sapiens, A-431; replenishment of compound every 72 h
Description: (§2) For adherent cell assays, each cell line was plated on day 0 in a 96-well plate at a density known to allow for exponential growth over 72 h. After 24 h, the compounds were diluted to the required concentrations in DMEM + 10% FBS media, maintaining a consistent final DMSO concentration of 0.1%. […] Growth inhibition was then assessed using a CyQUANT Direct Cell Proliferation assay (Invitrogen Cat No. C35011) following the manufacturer’s instructions. Fluorescence intensity (ex/em 480/520 nm) values were acquired using a PHERAstar microplate reader reader (BMG Labtech) and values were expressed as a percentage of the average DMSO treated value.

[4] = tested on: H1975 (L858R, T790M) cells; assay: Adherent cell growth inhibition (CyQUANT); assay type: cell-based; settings: Homo sapiens, NCI-H1975; replenishment of compound every 72 h; read-out: H1975 EGFR GI50
Description: as §2

mLTC-EGFR = mLTC-EGFR (Homo sapiens, UniProt P00533, C797S/L858R/T790M); assay: Intact protein mass spectrometry, covalent adduct formation; assay type: binding; settings: intact protein mass spectrometry
[5] = tested on: EGFR phosphorylation (Tyr1068) in H1975 (L858R, T790M) cells; assay: Western blot of EGFR phosphorylation; assay type: cell-based; settings: H1975, 4 h exposure
Description: Cells, seeded on the previous day, were incubated with test compound at the indicated concentrations or DMSO (0.1%) for 4 h. […] Preparation of lysates and Western blotting was performed twice as independent experiments.
Samples were prepared by diluting lysates in PBS to the desired concentration and before adding 4X XT sample buffer. Samples were then denatured at 98 °C for 5 min and then centrifuged to remove the residue. […] The quality of transfer was assessed using Ponceau S Stain (Sigma-Aldrich Cat. No. p7170).
Loading control antibodies were prepared in 5% milk w/v with 1× TBS/T (0.1 v/v) solution at a determined optimum concentration.
Proteins were detected using Clarity ECL substrate (Bio-Rad) and imaged using a Licor Odyssey FC.

C#Cc1cc(=O)n(-c2ccccc2)c2nc(Nc3ccc(N(C)CCN(C)C)cc3)ncc12 [Compound 7, 2-((4-((2-(Dimethylamino)ethyl)(methyl)amino)phenyl)amino)-5-ethynyl-8-phenylpyrido[2,3-d]pyrimidin-7(8H)-one]
GI50 [1]: < 100 nM
GI50 ([1]; Mus musculus, Ba/F3 EGFR, 72 h): 50 ± 3.2 nM
GI50 (BaF3 EGFR WT cells): 1100 nM
GI50 [2]: 49 ± 6 nM
GI50 [3]: 1500 nM
GI50 (A431 (WT-EGFR) cells): 2700 ± 1100 nM
GI50 [4]: 1100 ± 1100 nM
covalent adduct formation, in words (mLTC-EGFR): formed only a single adduct
concentration eliciting dose-dependent reduction in EGFR phosphorylation (Western blot) [5]: ≥ 100 nM
